Measurements published in patent US12492173B2, “Herbicidal substituted N-tetrazolyl aryl carboxamides” (Bayer Aktiengesellschaft, priority 2019, dated 2025).

Columns and labels:
Type in all cases: in vivo
Amaranthus retroflexus = test: Post-emergence herbicidal action, AMARE; design: key: % herbicidal action vs untreated; 100 = plants died, 0 = like control; conditions: for Herbicidal action against AMARE: comparative experiment, 5 g of a.i./ha
Summary of the method: (§1)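 Percent herbicidal effect was judged by eye against untreated controls around 3 weeks after foliar treatment, where 100% meant dead plants. Spraying took place at the one-leaf stage using wettable powder or emulsion concentrate diluted in water (600 to 800 l/ha) with added wetting agent at 0.2%.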

Setaria viridis = test: Pre-emergence herbicidal action, SETVI; design: key to Herbicidal action against SETVI: % activity: 100 = plants have died, 0 = like control plants; conditions: for herbicidal activity SETVI: dosage 320 g/ha, scored visually after 3 weeks vs untreated controls (100% = plants have died)
Summary of the method: (§2)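 Percent damage, assessed visually after 3 weeks and referenced to untreated controls, reflects a pre-emergence treatment. Spray liquid equated to 600 to 800 l/ha with 0.2% wetting agent, applied to the covering soil over seeds in sandy loam.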

Alopecurus myosuroides = test: Post-emergence herbicidal action, ALOMY; design: key: % herbicidal action vs untreated; 100 = plants died, 0 = like control
Summary of the method: as §1

Viola tricolor = test: Post-emergence herbicidal action, VIOTR; design: key: % herbicidal action vs untreated; 100 = plants died, 0 = like control
Summary of the method: as §1

Matricaria inodora = test: Post-emergence herbicidal action, MATIN; design: key: % herbicidal action vs untreated; 100 = plants died, 0 = like control
Summary of the method: as §1

Veronica persica = test: Pre-emergence herbicidal action, VERPE; conditions: dosage 320 g/ha, scored visually after 3 weeks vs untreated controls (100% = plants have died)
Summary of the method: as §2

[1] = comparative experiment, post-emergence, 5 g of a.i./ha

## CSCc1c(C(F)(F)F)ccc(C(=O)Nc2nnnn2C)c1SC [Example 1-161]
Amaranthus retroflexus; Dosage 80 g/ha
  herbicidal action AMARE: 100
Setaria viridis
  herbicidal activity SETVI: 100%
Alopecurus myosuroides; Dosage 80 g/ha
  herbicidal action ALOMY: 90
Viola tricolor; Dosage 80 g/ha
  herbicidal action VIOTR: 100
Matricaria inodora; Dosage 80 g/ha
  herbicidal action MATIN: 100
Veronica persica
  herbicidal activity VERPE: 100%

## CCn1nnnc1NC(=O)c1ccc(C(F)(F)F)c(CS(C)(=O)=O)c1Br [Example 2-382]
Amaranthus retroflexus; Dosage 80 g/ha
  herbicidal action AMARE: 90
Setaria viridis
  herbicidal activity SETVI: 100%
Alopecurus myosuroides; Dosage 80 g/ha
  herbicidal action ALOMY: 80
Viola tricolor; Dosage 80 g/ha
  herbicidal action VIOTR: 100
Matricaria inodora; Dosage 80 g/ha
  herbicidal action MATIN: 100
Veronica persica
  herbicidal activity VERPE: 100%

## CCSCc1c(C(F)(F)F)ccc(C(=O)Nc2nnnn2C)c1C [Example 1-86]
Amaranthus retroflexus; post-emergence, dosage 80 g/ha
  herbicidal action AMARE: 80%
Setaria viridis
  herbicidal activity SETVI: 100%
Alopecurus myosuroides; post-emergence, dosage 80 g/ha
  herbicidal action ALOMY: 80%
Viola tricolor; post-emergence, dosage 80 g/ha
  herbicidal action VIOTR: 100%
Matricaria inodora; post-emergence, dosage 80 g/ha
  herbicidal action MATIN: 100%
Veronica persica
  herbicidal activity VERPE: 100%

## CSCc1c(C(F)(F)F)ccc(C(=O)Nc2nnnn2C)c1Br [Example 1-380]
Amaranthus retroflexus; post-emergence, dosage 80 g/ha
  herbicidal action AMARE: 80%
Setaria viridis
  herbicidal activity SETVI: 100%
Alopecurus myosuroides; post-emergence, dosage 80 g/ha
  herbicidal action ALOMY: 90%
Viola tricolor; post-emergence, dosage 80 g/ha
  herbicidal action VIOTR: 100%
Matricaria inodora; post-emergence, dosage 80 g/ha
  herbicidal action MATIN: 90%
Veronica persica
  herbicidal activity VERPE: 100%

## CCCn1nnnc1NC(=O)c1ccc(C(F)(F)F)c(C[S+](C)[O-])c1Cl (stereo not drawn) [Example 3-297]
Amaranthus retroflexus; post-emergence, dosage 80 g/ha
  herbicidal action AMARE: 100%
Setaria viridis
  herbicidal activity SETVI: 100%
Alopecurus myosuroides; post-emergence, dosage 80 g/ha
  herbicidal action ALOMY: 90%
Viola tricolor; post-emergence, dosage 80 g/ha
  herbicidal action VIOTR: 100%
Matricaria inodora; post-emergence, dosage 80 g/ha
  herbicidal action MATIN: 100%
Veronica persica
  herbicidal activity VERPE: 100%

## Cn1nnnc1NC(=O)c1ccc(C(F)(F)F)c(C[S+](C)[O-])c1Br (stereo not drawn) [Example 1-381]
Amaranthus retroflexus; post-emergence, dosage 80 g/ha
  herbicidal action AMARE: 100%
Setaria viridis; comparative experiment, 20 g of a.i./ha
  Herbicidal action against SETVI: 80
Setaria viridis
  herbicidal activity SETVI: 100%
Alopecurus myosuroides; post-emergence, dosage 80 g/ha
  herbicidal action ALOMY: 80%
Viola tricolor; post-emergence, dosage 80 g/ha
  herbicidal action VIOTR: 100%
Matricaria inodora; post-emergence, dosage 80 g/ha
  herbicidal action MATIN: 90%
Veronica persica
  herbicidal activity VERPE: 100%

## CSCc1c(C(F)(F)F)ccc(C(=O)Nc2nnnn2C)c1Cl [Example 1-296]
Amaranthus retroflexus; post-emergence
  Herbicidal action against AMARE: 60
Amaranthus retroflexus; post-emergence, dosage 80 g/ha
  herbicidal action AMARE: 100%
Setaria viridis
  herbicidal activity SETVI: 100%
Alopecurus myosuroides; post-emergence, dosage 80 g/ha
  herbicidal action ALOMY: 100%
Viola tricolor; [1]
  Herbicidal action against VIOTR: 100
Viola tricolor; post-emergence, dosage 80 g/ha
  herbicidal action VIOTR: 100%
Matricaria inodora; post-emergence, dosage 80 g/ha
  herbicidal action MATIN: 100%
Veronica persica
  herbicidal activity VERPE: 100%

## C=CCSCc1c(C(F)(F)F)ccc(C(=O)Nc2nnnn2C)c1Cl [Example 1-308]
Amaranthus retroflexus; post-emergence, dosage 80 g/ha
  herbicidal action AMARE: 100%
Setaria viridis
  herbicidal activity SETVI: 100%
Alopecurus myosuroides; post-emergence, dosage 80 g/ha
  herbicidal action ALOMY: 100%
Viola tricolor; post-emergence, dosage 80 g/ha
  herbicidal action VIOTR: 90%
Matricaria inodora; post-emergence, dosage 80 g/ha
  herbicidal action MATIN: 100%
Veronica persica
  herbicidal activity VERPE: 100%

## CCn1nnnc1NC(=O)c1ccc(C(F)(F)F)c(CSC)c1SC [Example 2-161]
Amaranthus retroflexus; post-emergence, dosage 80 g/ha
  herbicidal action AMARE: 100%
Setaria viridis
  herbicidal activity SETVI: 100%
Alopecurus myosuroides; post-emergence, dosage 80 g/ha
  herbicidal action ALOMY: 80%
Viola tricolor; post-emergence, dosage 80 g/ha
  herbicidal action VIOTR: 100%
Matricaria inodora; post-emergence, dosage 80 g/ha
  herbicidal action MATIN: 100%
Veronica persica
  herbicidal activity VERPE: 100%

## CCn1nnnc1NC(=O)c1ccc(C(F)(F)F)c(C[S+](C)[O-])c1Br (stereo not drawn) [Example 2-381]
Amaranthus retroflexus; post-emergence, dosage 80 g/ha
  herbicidal action AMARE: 90%
Setaria viridis
  herbicidal activity SETVI: 100%
Alopecurus myosuroides; post-emergence, dosage 80 g/ha
  herbicidal action ALOMY: 80%
Viola tricolor; post-emergence, dosage 80 g/ha
  herbicidal action VIOTR: 100%
Matricaria inodora; post-emergence, dosage 80 g/ha
  herbicidal action MATIN: 90%
Veronica persica
  herbicidal activity VERPE: 100%

## CCSCc1c(C(F)(F)F)ccc(C(=O)Nc2nnnn2CC)c1Br [Example 2-383]
Amaranthus retroflexus; post-emergence, dosage 80 g/ha
  herbicidal action AMARE: 100%
Setaria viridis
  herbicidal activity SETVI: 100%
Alopecurus myosuroides; post-emergence, dosage 80 g/ha
  herbicidal action ALOMY: 80%
Viola tricolor; post-emergence, dosage 80 g/ha
  herbicidal action VIOTR: 100%
Matricaria inodora; post-emergence, dosage 80 g/ha
  herbicidal action MATIN: 100%
Veronica persica
  herbicidal activity VERPE: 100%

## CCn1nnnc1NC(=O)c1ccc(C)c(CSC)c1Cl [Example 2-287]
Amaranthus retroflexus; Dosage 80 g/ha
  herbicidal action AMARE: 90
Setaria viridis
  herbicidal activity SETVI: 90%
Alopecurus myosuroides; Dosage 80 g/ha
  herbicidal action ALOMY: 100
Viola tricolor; Dosage 80 g/ha
  herbicidal action VIOTR: 100
Matricaria inodora; Dosage 80 g/ha
  herbicidal action MATIN: 100
Veronica persica
  herbicidal activity VERPE: 100%

## CCSCc1c(C(F)F)ccc(C(=O)Nc2nnnn2C)c1SCC [Example 1-191]
Amaranthus retroflexus; Dosage 80 g/ha
  herbicidal action AMARE: 80
Setaria viridis
  herbicidal activity SETVI: 100%
Alopecurus myosuroides; Dosage 80 g/ha
  herbicidal action ALOMY: 80
Viola tricolor; Dosage 80 g/ha
  herbicidal action VIOTR: 100
Matricaria inodora; Dosage 80 g/ha
  herbicidal action MATIN: 90
Veronica persica
  herbicidal activity VERPE: 100%

## CCn1nnnc1NC(=O)c1ccc(C(F)(F)F)c(CSC)c1Br [Example 2-380]
Amaranthus retroflexus; post-emergence, dosage 80 g/ha
  herbicidal action AMARE: 80%
Setaria viridis
  herbicidal activity SETVI: 100%
Alopecurus myosuroides; post-emergence, dosage 80 g/ha
  herbicidal action ALOMY: 80%
Viola tricolor; post-emergence, dosage 80 g/ha
  herbicidal action VIOTR: 100%
Matricaria inodora; post-emergence, dosage 80 g/ha
  herbicidal action MATIN: 100%
Veronica persica
  herbicidal activity VERPE: 100%

## CCCn1nnnc1NC(=O)c1ccc(C(F)(F)F)c(CSCC)c1Br [Example 3-383]
Amaranthus retroflexus; Dosage 80 g/ha
  herbicidal action AMARE: 90
Setaria viridis
  herbicidal activity SETVI: 100%
Alopecurus myosuroides; Dosage 80 g/ha
  herbicidal action ALOMY: 80
Viola tricolor; Dosage 80 g/ha
  herbicidal action VIOTR: 100
Matricaria inodora; Dosage 80 g/ha
  herbicidal action MATIN: 100
Veronica persica
  herbicidal activity VERPE: 100%

## Cn1nnnc1NC(=O)c1ccc(C(F)(F)F)c(CS(C)(=O)=O)c1Cl [Example 1-298]
Amaranthus retroflexus; post-emergence
  Herbicidal action against AMARE: 100
Amaranthus retroflexus; post-emergence, dosage 80 g/ha
  herbicidal action AMARE: 100%
Setaria viridis
  herbicidal activity SETVI: 100%
Alopecurus myosuroides; [1]
  Herbicidal action against ALOMY: 70
Alopecurus myosuroides; post-emergence, dosage 80 g/ha
  herbicidal action ALOMY: 100%
Viola tricolor; post-emergence, dosage 80 g/ha
  herbicidal action VIOTR: 100%
Matricaria inodora; [1]
  Herbicidal action against MATIN: 100
Matricaria inodora; post-emergence, dosage 80 g/ha
  herbicidal action MATIN: 100%
Veronica persica
  herbicidal activity VERPE: 100%

## Cc1c(C(=O)Nc2nnnn2C)ccc(C(F)(F)F)c1C[S+](C)[O-] (stereo not drawn) [Example 1-84]
Amaranthus retroflexus; post-emergence, dosage 80 g/ha
  herbicidal action AMARE: 90%
Setaria viridis
  herbicidal activity SETVI: 100%
Alopecurus myosuroides; post-emergence, dosage 80 g/ha
  herbicidal action ALOMY: 80%
Viola tricolor; post-emergence, dosage 80 g/ha
  herbicidal action VIOTR: 100%
Matricaria inodora; post-emergence, dosage 80 g/ha
  herbicidal action MATIN: 100%
Veronica persica
  herbicidal activity VERPE: 100%

## Cn1nnnc1NC(=O)c1ccc(C(F)(F)F)c(C[S+](C)[O-])c1Cl (racemic) [Example 1-297]
Amaranthus retroflexus; post-emergence, dosage 80 g/ha
  herbicidal action AMARE: 90%
Setaria viridis
  herbicidal activity SETVI: 100%
Alopecurus myosuroides; post-emergence, dosage 80 g/ha
  herbicidal action ALOMY: 100%
Viola tricolor; post-emergence, dosage 80 g/ha
  herbicidal action VIOTR: 100%
Matricaria inodora; post-emergence, dosage 80 g/ha
  herbicidal action MATIN: 100%
Veronica persica
  herbicidal activity VERPE: 100%

## CCn1nnnc1NC(=O)c1ccc(C(F)(F)F)c(CS(C)(=O)=O)c1SC [Example 2-163]
Amaranthus retroflexus; Dosage 80 g/ha
  herbicidal action AMARE: 100
Setaria viridis
  herbicidal activity SETVI: 100%
Alopecurus myosuroides; Dosage 80 g/ha
  herbicidal action ALOMY: 90
Viola tricolor; Dosage 80 g/ha
  herbicidal action VIOTR: 100
Matricaria inodora; Dosage 80 g/ha
  herbicidal action MATIN: 100
Veronica persica
  herbicidal activity VERPE: 100%

## CCS(=O)(=O)Cc1c(C(F)(F)F)ccc(C(=O)Nc2nnnn2C)c1Cl [Example 1-301]
Amaranthus retroflexus; Dosage 80 g/ha
  herbicidal action AMARE: 80
Setaria viridis
  herbicidal activity SETVI: 100%
Alopecurus myosuroides; Dosage 80 g/ha
  herbicidal action ALOMY: 80
Viola tricolor; Dosage 80 g/ha
  herbicidal action VIOTR: 100
Matricaria inodora; Dosage 80 g/ha
  herbicidal action MATIN: 90
Veronica persica
  herbicidal activity VERPE: 100%
